Laboratory results as given in patent US20250381165A1, “Method of Use for Benzofuran Compounds” (Tampa Bay Research Institute, Inc., priority 2024, published 2025).

Assays:
RAW 264.7 = assay: CellTiter-Glo cell viability, RAW 264.7; type: cell-based, murine; conditions: Mus musculus, RAW264.7
Method: (§1) BzFβ was then examined for its effect on the viability of several murine and human cell lines and primary murine splenocytes. The cytotoxicity of BzFβ was assessed using the CellTiter-Glo […] assay system according to manufacturer's instructions to determine BzFβ's effect on the viability of several murine and human cell lines and primary murine splenocytes.
DC2.4 cell line (Dr. Kenneth Rock, University of Massachusetts), RAW 264.7 cell line (American Type Culture Collection (ATCC), Manassas, VA; TIB 71), and IMG cell line (Millipore™, Merck KGaA, Burlington, MA; cat. no. SC-C134) were each cultured in complete Dulbecco's Modified Eagle Medium (cDMEM) containing […] glucose (Gibco™, Thermo Fisher Scientific Inc., Waltham, MA; cat. no. 10566-016) and supplemented with GlutaMAX, 50 U/mL penicillin and 50 µg/mL streptomycin (Gibco™; cat. no. 15070-063) and 10% heat inactivated fetal bovine serum (FBS) (R&D Systems, Inc., Minneapolis, MN; cat. no. […]
(§2) The cytotoxicity of BzFβ was assessed using the CellTiter-Glo cell […] viability assay system […] cat. no. […] CellTiter-Glo was added 1:1 in the media and the level of chemiluminescence was measured using luminescence at wavelengths of 200 nm to 700 nm through a photomultiplier on BioTek's Synergy HTX multimode microplate reader. […]

[1] = tested on: freshly isolated murine splenocytes; assay: CellTiter-Glo cell viability, primary splenocytes; type: cell-based
Method: as §1
Six- to ten-week-old female C57BL/6NCrl mice (Charles River Laboratories, Wilmington, MA; cat. no. 027) were maintained in accord with the NIH Guide for the Care and Use of Laboratory Animals. Mice were maintained in an INOVIVE individually ventilated cage system with 3 mice per cage containing 100% virgin wood pulp bedding (Harlan Teklad™, Inotiv Inc., West Lafayette, IN; cat. no. 7099). Water and food (Harlan Teklad™, Inotiv Inc., West Lafayette, IN; cat. no. 8640) were available ad libitum. […] The cell count was determined using the MUSE cell viability kit (MCH600103) and MUSE Cell Analyzer (Luminex Corp, Austin TX). […]
as §2

[2] = tested on: DC2.4 cells (B3Z activation); assay: Cross-presentation of whole OVA by DC2.4 to B3Z; type: cell-based, murine; conditions: co-treatment 6 h, 0.5 mg/mL OVA; p<0.001 all doses
Method: DC2.4 cells (5×10^5 cells/ml) were seeded at 100 μL/well in 96 well plates and cultured overnight. The cells were washed with DPBS, and co-exposed to 0.5 mg/mL soluble whole OVA, along with increasing concentrations of BzFβ for 6 h, The cells were then co-cultured with equal number of B3Z cells at 37° C. for 19 h.

For `O=C(O)/C=C/c1ccc2occc2c1` [BzFβ, (2E)-3-(1-benzofuran-5-yl)prop-2-enoic acid], the IC50 (RAW 264.7) was 783 µM, the IC50 ([1]; Mus musculus, Splenocyte, freshly isolated murine splenocytes, CellTiter-Glo) was 402 µM and the “viability of primary murine splenocytes” value ([1]; concentrations below 50 µg/mL) was “minimally affected”. For the same molecule, the “B3Z response, cross-presentation of OVA” value [2] was “significantly enhance the B3Z response”.
